Results published in US9822130B2, “Triazolo-pyrazinyl derivatives useful as soluble guanylate cyclase activators” (Merck Sharp & Dohme Corp., priority 2014, dated 2017).

What was measured:
[1] = IV Cassette PK Assay in rats; assay type: in vivo; conditions: rat, male Wistar-Han rats, plasma, LC-MS/MS, read-out: Cassette PK T1/2 (converted)
Protocol: The results were obtained using the following the procedure:
Adult male Wistar-Han rats were fasted overnight and administered a cassette IV dose of mixture of several compounds via a previously implanted catheter in the femoral vein. Animals were allowed access to food 4 h post dose. Blood samples were collected into EDTA-containing tubes at the following time points: 0.03, 0.13, 0.25, 0.5, 1, 2, 4, 8 h post-dose. Blood samples were stored on ice until plasma was harvested by centrifugation. Plasma was transferred to a 96-well plate and stored at −20° C. until analysis. Concentrations of each compound in rat plasma were determined by LC-MS/MS following protein precipitation.

[2] = target: T1, sGC α1/β1 heterodimer stably expressed in CHO-K1 cell line (CHO-K1/sGC) (Homo sapiens, UniProt Q02108+Q02153); assay: Cell-based sGC Functional Assay (CASA Assay), cGMP generation; conditions: CHO-K1/sGC cells, 1 hr at 37° C., cGMP by HTRF, 4P fit; presence or absence of 1 μM DETA-NO not given; read-out: IP (nM) (inflection point)
T1 construct: expressed in transfected cells
T1 sequence (Q02108 1-690): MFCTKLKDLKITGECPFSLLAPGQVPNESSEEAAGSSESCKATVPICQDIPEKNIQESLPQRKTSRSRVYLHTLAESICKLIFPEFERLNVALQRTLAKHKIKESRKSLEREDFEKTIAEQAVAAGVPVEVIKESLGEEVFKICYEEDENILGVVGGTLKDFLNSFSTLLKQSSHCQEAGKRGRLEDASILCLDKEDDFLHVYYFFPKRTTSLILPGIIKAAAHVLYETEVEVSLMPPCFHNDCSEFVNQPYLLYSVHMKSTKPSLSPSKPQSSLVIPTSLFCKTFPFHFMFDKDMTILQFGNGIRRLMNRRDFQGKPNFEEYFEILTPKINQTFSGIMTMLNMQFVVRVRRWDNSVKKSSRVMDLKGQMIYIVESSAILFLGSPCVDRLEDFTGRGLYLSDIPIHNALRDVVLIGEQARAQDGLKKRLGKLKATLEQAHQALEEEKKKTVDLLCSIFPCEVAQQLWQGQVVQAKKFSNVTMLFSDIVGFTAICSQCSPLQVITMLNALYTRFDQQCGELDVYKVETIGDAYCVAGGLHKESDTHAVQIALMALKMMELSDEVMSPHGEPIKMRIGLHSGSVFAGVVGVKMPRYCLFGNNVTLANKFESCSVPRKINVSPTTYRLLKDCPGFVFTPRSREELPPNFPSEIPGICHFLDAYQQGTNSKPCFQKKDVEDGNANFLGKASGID
T1 sequence (Q02153 1-619): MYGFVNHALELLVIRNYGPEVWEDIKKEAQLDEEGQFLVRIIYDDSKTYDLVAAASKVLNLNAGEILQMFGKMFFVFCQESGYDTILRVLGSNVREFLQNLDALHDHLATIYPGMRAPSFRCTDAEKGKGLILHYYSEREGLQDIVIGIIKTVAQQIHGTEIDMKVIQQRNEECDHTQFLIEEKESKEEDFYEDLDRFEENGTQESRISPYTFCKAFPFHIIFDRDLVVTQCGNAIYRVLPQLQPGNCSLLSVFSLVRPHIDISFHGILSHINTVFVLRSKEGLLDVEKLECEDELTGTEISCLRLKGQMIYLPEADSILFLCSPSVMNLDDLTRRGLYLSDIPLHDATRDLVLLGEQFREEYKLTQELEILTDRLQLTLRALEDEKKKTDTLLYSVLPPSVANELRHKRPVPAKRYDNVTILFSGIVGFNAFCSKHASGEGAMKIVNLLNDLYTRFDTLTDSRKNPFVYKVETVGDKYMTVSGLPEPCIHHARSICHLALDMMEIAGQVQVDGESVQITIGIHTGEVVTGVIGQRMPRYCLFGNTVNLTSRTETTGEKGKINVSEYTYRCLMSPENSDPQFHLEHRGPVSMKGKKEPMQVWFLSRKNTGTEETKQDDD
In short: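 CHO-K1 cells stably expressing human sGC α1/β1 (4×10^5/mL, 0.5 mM IBMX) were treated with compounds (2.5% DMSO final) ± 1 μM DETA-NO for 1 hr at 37° C. Intracellular cGMP measured by HTRF. Activity expressed as % of Compound A maximal cGMP; IP and maximum fold induction from 4P fit.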

Compound | half-life [1] | EC50 [2]
Nc1nc(-c2cn3ncnc3c(CCCC(F)(F)F)n2)nc2c1C(c1ccc(C(F)F)cn1)(C1CC1)C(=O)N2 (racemic) [Example 44B, 4-amino-5-cyclopropyl-5-(5-(difluoromethyl)pyridin-2-yl)-2-(8-(4,4,4-trifluorobutyl)-[1,2,4]triazolo[1,5-a]pyrazin-6-yl)-5H-pyrrolo[2,3-d]pyrimidin-6(7H)-one] | 3.94 h | 111 nM
C[C@@]1(c2ccc(F)cc2)C(=O)Nc2nc(-c3cn4ncnc4c(CCC(F)(F)C(F)(F)F)n3)nc(N)c21 [Example 1A, (S)-4-Amino-5-(4-fluorophenyl)-5-methyl-2-(8-(3,3,4,4,4-pentafluorobutyl)-[1,2,4]triazolo[1,5-a]pyrazin-6-yl)-5H-pyrrolo[2,3-d]pyrimidin-6(7H)-one] | 3.35 h | 187 nM
CC1(c2ccc(F)cn2)C(=O)Nc2nc(-c3cn4ncnc4c(CCC(F)(F)C(F)(F)F)n3)nc(N)c21 (stereo not drawn) [Example 4B, 4-amino-5-(5-fluoropyridin-2-yl)-5-methyl-2-(8-(3,3,4,4,4-pentafluorobutyl)-[1,2,4]triazolo[1,5-a]pyrazin-6-yl)-5H-pyrrolo[2,3-d]pyrimidin-6(7H)-one] | 2.97 h | 117 nM
CC1(c2ccc(F)cn2)C(=O)Nc2nc(-c3cn4ncnc4c(CCCC(F)(F)F)n3)ncc21 (stereo not drawn) [Example 176B] |  | 526 nM
C[C@@]1(c2ccc(F)cc2)C(=O)Nc2nc(-c3cn4ncnc4c(CCC(F)(F)C(F)(F)F)n3)nc(C(N)=O)c21 [Example 177A, 5-(4-Fluorophenyl)-5-methyl-6-oxo-2-(8-(3,3,4,4,4-pentafluorobutyl)-[1,2,4]triazolo[1,5-a]pyrazin-6-yl)-6,7-dihydro-5H-pyrrolo[2,3-d]pyrimidine-4-carboxamide] |  | 128 nM
NC(=O)c1nc(-c2cn3ncnc3c(CCCC(F)(F)F)n2)nc2c1C(c1ccc(C(F)(F)F)cn1)(C1CC1)C(=O)N2 (stereo not drawn) [Example 178A] |  | 199 nM
CC1(c2ccc(C(F)(F)F)cn2)C(=O)Nc2nc(-c3cn4ncnc4c(CCCC(F)(F)F)n3)nc(C(N)=O)c21 (stereo not drawn) [Example 179B, 5-methyl-6-oxo-2-(8-(4,4,4-trifluorobutyl)-[1,2,4]triazolo[1,5-a]pyrazin-6-yl)-5-(5-(trifluoromethyl)pyridin-2-yl)-6,7-dihydro-5H-pyrrolo[2,3-d] pyrimidine-4-carboxamide] |  | 90.2 nM
CC1(c2ccc(C(F)F)cn2)C(=O)Nc2nc(-c3cn4ncnc4c(CCCC(F)(F)F)n3)nc(O)c21 (stereo not drawn) [Example 181A, 4-hydroxy-5-(5-(difluoromethyl)pyridin-2-yl)-5-methyl-2-(8-(4,4,4-trifluorobutyl)-[1,2,4]triazolo[1,5-a]pyrazin-6-yl)-5H-pyrrolo[2,3-d]pyrimidin-6(7H)-one] |  | 749 nM
CC1(c2ccc(F)cc2)C(=O)Nc2nc(-c3cn4ccnc4c(CCC(F)(F)C(F)(F)F)n3)nc(N)c21 (stereo not drawn) [reference compound] | 1.04 h | 
